Calls of active or inactive are those of the source. The rule behind the calls is not given here.
What was measured:
[1] = tested on: HepG2; test: Effect on sterol biosynthesis in human HepG2 cells at 30 uM; format: functional, cell-based
[2] = Cytotoxicity against human HepG2 cells assessed as cell viability after 48 hrs by MTT assay; format: cell-based; design: concentration or dose not given beside the values; details: read-out: Activity
[3] = tested on: HepG2; test: Effect on triglyceride biosynthesis in human HepG2 cells at 30 uM; format: functional, cell-based
[4] = tested on: HepG2; test: Stimulation of triglyceride biosynthesis in human HepG2 cells incubated at 5 uM for 14 hrs followed by sodium [14C]-acetate addition measured after 4 hrs; format: functional, cell-based
[5] = tested on: HepG2; test: Reduction in cholesterol biosynthesis in human HepG2 cells incubated at 5 uM for 14 hrs followed by sodium [14C]-acetate addition measured after 4 hrs; format: functional, cell-based
[6] = tested on: HepG2; test: Reduction in cholesterol biosynthesis in human HepG2 cells incubated at 2 uM for 14 hrs followed by sodium [14C]-acetate addition measured after 4 hrs; format: functional, cell-based
[7] = tested on: HepG2; test: Stimulation of triglyceride biosynthesis in human HepG2 cells incubated at 2 uM for 14 hrs followed by sodium [14C]-acetate addition measured after 4 hrs; format: functional, cell-based
[8] = tested on: HepG2; test: Cytotoxicity against human HepG2 cells assessed as cell viability up to 2 uM after 48 hrs by MTT assay; format: cell-based; details: hepg2, 48 h

Compound: CC(CO)(CO)NC(=O)/C=C1\CC[C@H]2[C@@H]3CC=C4C[C@@H](O)CC[C@]4(C)[C@H]3CC[C@]12C
- Activity [1]: inactive
- viability at 48 h [2]: > 70%
- Activity [3]: inactive

Compound: COC(=O)CNC(=O)/C=C1\CC[C@H]2[C@@H]3CC=C4C[C@@H](O)CC[C@]4(C)[C@H]3CC[C@]12C
- Activity [1]: inactive
- viability at 48 h [2]: > 70%
- Activity [4]: Active
- Activity [5]: inactive
- Activity [3]: inactive

Compound: C[C@]12CC[C@H](O)CC1=CC[C@@H]1[C@@H]2CC[C@]2(C)/C(=C/C(=O)NCCO)CC[C@@H]12
- Activity [1]: inactive
- viability at 48 h [2]: > 70%
- Activity [4]: Active
- Activity [5]: Active
- Activity [3]: inactive

Compound: CC(C)(CO)NC(=O)/C=C1/CC[C@H]2[C@@H]3CC=C4C[C@@H](O)CC[C@]4(C)[C@H]3CC[C@]12C
- Activity [1]: inactive
- viability at 48 h [2]: > 70%
- Activity [4]: inactive
- Activity [5]: inactive
- Activity [3]: inactive

Compound: CC(C)(CO)NC(=O)/C=C1\CC[C@H]2[C@@H]3CC=C4C[C@@H](O)CC[C@]4(C)[C@H]3CC[C@]12C
- Activity [1]: inactive
- viability at 48 h [2]: > 70%
- Activity [3]: inactive

Compound: C[C@]12CC[C@H](O)CC1=CC[C@@H]1[C@@H]2CC[C@]2(C)/C(=C/C(=O)NC(CO)(CO)CO)CC[C@@H]12
- Activity [1]: inactive
- viability at 48 h [2]: > 70%
- Activity [3]: inactive

Compound: CC(C)CCNC(=O)/C=C1\CC[C@H]2[C@@H]3CC=C4C[C@@H](O)CC[C@]4(C)[C@H]3CC[C@]12C
- Activity [1]: inactive
- viability at 48 h [2]: > 70%
- Activity [4]: Active
- Activity [5]: Active
- Activity [3]: inactive

Compound: CC(C)CCNC(=O)/C=C1/CC[C@H]2[C@@H]3CC=C4C[C@@H](O)CC[C@]4(C)[C@H]3CC[C@]12C
- Activity [1]: inactive
- viability at 48 h [2]: > 70%
- Activity [4]: inactive
- Activity [5]: inactive
- Activity [3]: inactive

Compound: CC(CO)(CO)NC(=O)/C=C1/CC[C@H]2[C@@H]3CC=C4C[C@@H](O)CC[C@]4(C)[C@H]3CC[C@]12C
- Activity [1]: inactive
- viability at 48 h [2]: > 70%
- Activity [4]: inactive
- Activity [5]: inactive
- Activity [3]: inactive

Compound: C[C@]12CC[C@H](O)CC1=CC[C@@H]1[C@@H]2CC[C@]2(C)/C(=C\C(=O)NCCO)CC[C@@H]12
- Activity [1]: inactive
- viability at 48 h [2]: > 70%
- Activity [4]: inactive
- Activity [5]: inactive
- Activity [3]: inactive

Compound: C[C@]12CC[C@H](O)CC1=CC[C@@H]1[C@@H]2CC[C@]2(C)/C(=C\C(=O)NC(CO)(CO)CO)CC[C@@H]12
- Activity [1]: inactive
- viability at 48 h [2]: > 70%
- Activity [4]: inactive
- Activity [5]: inactive
- Activity [3]: inactive

Compound: CN(C)C(=O)CNC(=O)/C=C1\CC[C@H]2[C@@H]3CC=C4C[C@@H](O)CC[C@]4(C)[C@H]3CC[C@]12C
- Activity [1]: inactive
- viability at 48 h [2]: > 70%
- Activity [4]: Active
- Activity [5]: Active
- Activity [3]: inactive

Compound: C[C@H](CCCC(C)(C)O)[C@H]1CC[C@H]2[C@@H]3CC=C4C[C@@H](O)CC[C@]4(C)[C@H]3CC[C@]12C
- Activity [1]: inactive
- Activity [6]: Active
- viability at 48 h [2]: > 70%
- Activity [7]: Active
- Activity [3]: inactive
- Activity [8]: Non-toxic

From ChEMBL document CHEMBL2346612, “Pregna-5,17(20)-dien-21-oyl amides affecting sterol and triglyceride biosynthesis in Hep G2 cells” (Bioorg Med Chem Lett, 2013)
